Laboratory results reported in PubChem BioAssay (NCI).
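Abbreviation: GI50, concentration required for 50% inhibition of growth. TGI: concentration producing complete growth inhibition.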

How the values were obtained:
Experiment in all cases: inhibition of tumour cell growth, NCI panel, 384-well format
SK-OV-3 ovarian = test system: SK-OV-3 ovarian
MOLT-4 leukemia = test system: MOLT-4 leukemia
786-0 renal = test system: 786-0 renal
OVCAR-4 ovarian = test system: OVCAR-4 ovarian
SW-620 colon = test system: SW-620 colon
MDA-MB-231 breast = test system: MDA-MB-231 breast
HOP-92 NSCLC = test system: HOP-92 NSCLC
TK-10 renal = test system: TK-10 renal
RXF 393 renal = test system: RXF 393 renal
SK-MEL-5 melanoma = test system: SK-MEL-5 melanoma
RPMI-8226 leukemia = test system: RPMI-8226 leukemia
BT-549 breast = test system: BT-549 breast
ACHN renal = test system: ACHN renal
UACC-257 melanoma = test system: UACC-257 melanoma
CCRF-CEM leukemia = test system: CCRF-CEM leukemia
PC-3 prostate = test system: PC-3 prostate
SK-MEL-28 melanoma = test system: SK-MEL-28 melanoma
IGROV1 ovarian = test system: IGROV1 ovarian
NCI-H23 lung = test system: NCI-H23 lung
NCI/ADR-RES ovarian = test system: NCI/ADR-RES ovarian
HT29 colon = test system: HT29 colon
OVCAR-8 ovarian = test system: OVCAR-8 ovarian
U251 glioblastoma = test system: U251 glioblastoma
MDA-MB-468 breast = test system: MDA-MB-468 breast
MDA-MB-435 melanoma = test system: MDA-MB-435 melanoma
A498 renal = test system: A498 renal
OVCAR-5 ovarian = test system: OVCAR-5 ovarian
HCT-15 colon = test system: HCT-15 colon
MCF7 breast = test system: MCF7 breast
NCI-H460 NSCLC = test system: NCI-H460 NSCLC
OVCAR-3 ovarian = test system: OVCAR-3 ovarian
NCI-H522 lung = test system: NCI-H522 lung
M14 melanoma = test system: M14 melanoma
HCT-116 colon = test system: HCT-116 colon
SF-295 CNS = test system: SF-295 CNS
NCI-H226 lung = test system: NCI-H226 lung
HS 578T breast = test system: HS 578T breast
SF-539 CNS = test system: SF-539 CNS
K-562 leukemia = test system: K-562 leukemia
A549 NSCLC = test system: A549 NSCLC
MALME-3M melanoma = test system: MALME-3M melanoma
HCC-2998 colon = test system: HCC-2998 colon
CAKI-1 renal = test system: CAKI-1 renal
SF-268 CNS = test system: SF-268 CNS
SNB-75 CNS = test system: SNB-75 CNS
LOX IMVI melanoma = test system: LOX IMVI melanoma
SN12C renal = test system: SN12C renal
EKVX NSCLC = test system: EKVX NSCLC
NCI-H322M lung = test system: NCI-H322M lung
HOP-62 NSCLC = test system: HOP-62 NSCLC
UACC-62 melanoma = test system: UACC-62 melanoma
SNB-19 CNS = test system: SNB-19 CNS
UO-31 renal = test system: UO-31 renal
KM12 colon = test system: KM12 colon
T-47D breast = test system: T-47D breast
DU-145 prostate = test system: DU-145 prostate
COLO 205 colon = test system: COLO 205 colon

Structure (SMILES): COc1ncc(Nc2ncc([C@@H](C)N3CCN(S(C)(=O)=O)CC3)cc2-c2nc(C)nc(N)n2)cc1F
- GI50 (SK-OV-3 ovarian): 96.5 nM
- TGI (SK-OV-3 ovarian): 10400 nM
- GI50 (MOLT-4 leukemia): 15 nM
- TGI (MOLT-4 leukemia): 120 nM
- GI50 ([…]-0 renal): 76 nM
- TGI (786-0 renal): 3770 nM
- GI50 (OVCAR-4 ovarian): 2250 nM
- TGI (OVCAR-4 ovarian): > 100000 nM
- GI50 (SW-620 colon): 3800 nM
- TGI (SW-620 colon): > 100000 nM
- GI50 (MDA-MB-231 breast): 2270 nM
- TGI (MDA-MB-231 breast): > 100000 nM
- GI50 (HOP-92 NSCLC): 24.6 nM
- TGI (HOP-92 NSCLC): 1220 nM
- GI50 (TK-10 renal): 294 nM
- TGI (TK-10 renal): 7940 nM
- GI50 (RXF 393 renal): 12.5 nM
- TGI (RXF 393 renal): 76.3 nM
- GI50 (SK-MEL-5 melanoma): 1030 nM
- TGI (SK-MEL-5 melanoma): 11900 nM
- GI50 (RPMI-8226 leukemia): 2800 nM
- TGI (RPMI-8226 leukemia): 8440 nM
- GI50 (BT-549 breast): 53.3 nM
- TGI (BT-549 breast): 6330 nM
- GI50 (ACHN renal): 100 nM
- TGI (ACHN renal): > 100000 nM
- GI50 (UACC-257 melanoma): 488 nM
- TGI (UACC-257 melanoma): 60500 nM
- GI50 (CCRF-CEM leukemia): 89.1 nM
- TGI (CCRF-CEM leukemia): 1550 nM
- GI50 (PC-3 prostate): 33.6 nM
- TGI (PC-3 prostate): 18600 nM
- GI50 (SK-MEL-28 melanoma): 89.6 nM
- TGI (SK-MEL-28 melanoma): 6790 nM
- GI50 (IGROV1 ovarian): < 10 nM
- TGI (IGROV1 ovarian): 43.3 nM
- GI50 (NCI-H23 lung): 1950 nM
- TGI (NCI-H23 lung): > 100000 nM
- GI50 (NCI/ADR-RES ovarian): 3390 nM
- TGI (NCI/ADR-RES ovarian): > 100000 nM
- GI50 (HT29 colon): 139 nM
- TGI (HT29 colon): > 100000 nM
- GI50 (OVCAR-8 ovarian): 1440 nM
- TGI (OVCAR-8 ovarian): > 100000 nM
- GI50 (U251 glioblastoma): 1010 nM
- TGI (U251 glioblastoma): > 100000 nM
- GI50 (MDA-MB-468 breast): < 10 nM
- TGI (MDA-MB-468 breast): 160 nM
- GI50 (MDA-MB-435 melanoma): 2310 nM
- TGI (MDA-MB-435 melanoma): > 100000 nM
- GI50 (A498 renal): 32.2 nM
- TGI (A498 renal): 337 nM
- GI50 (OVCAR-5 ovarian): 160 nM
- TGI (OVCAR-5 ovarian): 16800 nM
- GI50 (HCT-15 colon): 465 nM
- TGI (HCT-15 colon): > 100000 nM
- GI50 (MCF7 breast): 40.7 nM
- TGI (MCF7 breast): 27600 nM
- GI50 (NCI-H460 NSCLC): 71.1 nM
- TGI (NCI-H460 NSCLC): > 100000 nM
- GI50 (OVCAR-3 ovarian): 61 nM
- TGI (OVCAR-3 ovarian): 3100 nM
- GI50 (NCI-H522 lung): 1630 nM
- TGI (NCI-H522 lung): 19500 nM
- GI50 (M14 melanoma): 1280 nM
- TGI (M14 melanoma): > 100000 nM
- GI50 (HCT-116 colon): 2790 nM
- TGI (HCT-116 colon): > 100000 nM
- GI50 (SF-295 CNS): 49.8 nM
- TGI (SF-295 CNS): 2100 nM
- GI50 (NCI-H226 lung): 1300 nM
- TGI (NCI-H226 lung): 13700 nM
- GI50 (HS 578T breast): 17 nM
- TGI (HS 578T breast): 333 nM
- GI50 (SF-539 CNS): 179 nM
- TGI (SF-539 CNS): 4150 nM
- GI50 (K-562 leukemia): 4540 nM
- TGI (K-562 leukemia): > 100000 nM
- GI50 (A549 NSCLC): 138 nM
- TGI (A549 NSCLC): 11900 nM
- GI50 (MALME-3M melanoma): 1040 nM
- TGI (MALME-3M melanoma): > 100000 nM
- GI50 (HCC-2998 colon): 1230 nM
- TGI (HCC-2998 colon): 38200 nM
- GI50 (CAKI-1 renal): 23 nM
- TGI (CAKI-1 renal): 18100 nM
- GI50 (SF-268 CNS): < 10 nM
- TGI (SF-268 CNS): 88.9 nM
- GI50 (SNB-75 CNS): < 10 nM
- TGI (SNB-75 CNS): 48.1 nM
- GI50 (LOX IMVI melanoma): 552 nM
- TGI (LOX IMVI melanoma): 5650 nM
- GI50 (SN12C renal): 31.7 nM
- TGI (SN12C renal): 8950 nM
- GI50 (EKVX NSCLC): 73.3 nM
- TGI (EKVX NSCLC): 5230 nM
- GI50 (NCI-H322M lung): 367 nM
- TGI (NCI-H322M lung): 27900 nM
- GI50 (HOP-62 NSCLC): 1940 nM
- TGI (HOP-62 NSCLC): 83700 nM
- GI50 (UACC-62 melanoma): 30.4 nM
- TGI (UACC-62 melanoma): 1450 nM
- GI50 (SNB-19 CNS): 4730 nM
- TGI (SNB-19 CNS): > 100000 nM
- GI50 (UO-31 renal): 187 nM
- TGI (UO-31 renal): 7210 nM
- GI50 (KM12 colon): 1360 nM
- TGI (KM12 colon): > 100000 nM
- GI50 (T-47D breast): < 10 nM
- TGI (T-47D breast): 42.6 nM
- GI50 (DU-145 prostate): 651 nM
- TGI (DU-145 prostate): > 100000 nM
- GI50 (COLO 205 colon): 275 nM
- TGI (COLO 205 colon): 67800 nM
